Laboratory results from US9101634B2, “Application of 2, 3-dihydro-3-hydroxymethyl-6-amino-[1,4]-benzoxazine in preparation of drugs inducing embryonic stem cells to differentiate to vascular endothelial cells” (SHANDONG UNIVERSITY, priority 2010, dated 2015).
“Also recorded” adds a separate entry of the source.

Legend:
embryonic stem cells [1] = experiment: Function detection of phagocytosis of Dil-Ac-LDL; format: cell-based, mouse; conditions: cells induced for ten days, six hours with Dil-Ac-LDL
Description: The embryonic stem cells after induction for ten days were seeded in 24-well paved with gelatin, placed at 37° C., and cultured in CO2 incubator. After the cells adhered on the wall, the Dil-Ac-LDL diluted with medium culture was added into the culture plates, placed at 37° C., and cultured in CO2 incubator for six hours. The normal group was set: embryonic stem cells which were cultured for ten days under the culture condition of differentiation culture medium; Solvent control group: the embryonic stem cells which were cultured for ten days after DMSO was added under the culture condition of differentiation culture medium; experimental group: the embryonic stem cells which were cultured for ten days after 2,3-dihydro-3-hydroxy methyl-6-amino-[1,4]-benzoxazine with the concentration of 0.5 μM˜40 μM was added under the culture condition of differentiation culture medium. […]
The embryonic stem cells were evenly grown in a 24-well plate according to the density of 2×10^4 cells/well and cultured for 24 hours with DMEM (high glucose) containing leukemia inhibitory factor, L-glutamine, streptomycin, β-mercaptoethanol, non-essential amino acids, nucleotides and 15% FBS, the waste liquid was discarded after the cells adhered on the wall, and the cells were cleaned with 1×PBS. […] The conditions of phagocytosing Dil-Ac-LDL were detected with laser confocal microscopy.

[2] = tested on: mouse embryonic stem cells; experiment: Influence on mouse embryonic stem cell morphology (inverted phase contrast microscope); format: cell-based; conditions: ten days
Description: The embryonic stem cells were evenly grown in a 24-well plate, a normal group was set after the cells adhered on the wall: the normal group was cultured under the condition of differentiation culture medium (after removal of leukemia inhibitory factor from normal culture medium); solvent control group: the group was cultured after DMSO was added under the culture condition of differentiation culture medium; experimental group: the group was cultured after 2,3-dihydro-3-hydroxymethyl-6-amino-[1,4]-benzoxazine with the concentration of 0.5 μM˜40 μM was added under the culture condition of differentiation culture medium. The culture conditions: 37° C., CO2 incubator box for cultivation. The culture medium should be replaced everyday in a timing mode, the morphological changes were observed under an inverted phase contrast microscope until the tenth day.
(§1) The embryonic stem cells were evenly grown in a 24-well plate according to density of 2×10^4 cells/well, DMEM (high glucose) containing leukemia inhibitory factor, L-glutamine, streptomycin, β-mercaptoethanol, non-essential amino acids, nucleotides and 15% PBS was used for culturing for 24 hours, the waste liquid was discarded after the cells adhered on the wall, and the cells were cleaned with 1×PBS. A normal group was set: the normal group was cultured under the culture condition that leukemia inhibitory factor was removed; solvent control group: the group was cultured after DMSO was added under the culture condition that leukemia inhibitory factor was removed; experimental group: the group was cultured after 2,3-dihydro-3-hydroxymethyl-6-amino-[1,4]-benzoxazine with the concentration of 0.5 μM, 1 μM, 5 μM, 10 μM, 20 μM, 30 μM and 40 μM was added under the culture condition that leukemia inhibitory factor was removed. The culture conditions: 37° C., CO2 incubator box for cultivation. The culture medium should be replaced everyday in a timing mode, and the cells were continuously cultured for ten days and then were observed under an inverted phase contrast microscope.

[3] = tested on: vascular endothelial marker CD31 in embryonic stem cells; experiment: Detection of vascular endothelial cell marker CD31 (Western blot); format: cell-based, mouse; conditions: induction for 10 days
Description: The embryonic stem cells induced by 2,3-dihydro-3-hydroxymethyl-6-amino-[1,4]-benzoxazine with the concentration of 0.5 μM˜40 μM for ten days were cracked, and total cellular protein was distilled. The solvent control group was set: the group was cultured after DMSO was added under the culture condition of differentiation culture medium; experimental group: the group was cultured after 2,3-dihydro-3-(hydroxymethyl)-6-Amino-[1,4]-benzoxazine with the concentration of 0.5 μM˜40 μM under the culture condition of differentiation culture medium. The extracted embryonic stem cells were used for Western blot experiment to detect the expression of vascular endothelial marker CD31.
The embryonic stem cells were evenly grown in a 6-well plate according to the density of 2×10^4 cells/well, and cultured for 24 hours with DMEM (high glucose) containing leukemia inhibitory factor, L-glutamine, streptomycin, β-mercaptoethanol, non-essential amino acids, nucleotides and 15% FBS, the waste liquid was discarded after the cells adhered on the wall, and the cells were cleaned with 1×PBS. The normal group was set: the group was cultured under the culture condition that leukemia inhibitory factor was removed; solvent control group: the group was cultured after DMSO was added under the culture condition that leukemia inhibitory factor was removed; experimental group: the group was cultured after 2,3-dihydro-3-hydroxymethyl-6-amino-[1,4]-benzoxazine with the concentration of 0.5 μM, 1 μM, 5 μM, 10 μM, 20 μM, 30 μM and 40 μM was added under the culture condition that leukemia inhibitory factor was removed. The culture conditions: 37° C., CO2 incubator box for cultivation. The culture medium should be replaced everyday, and the cells should be continuously cultured for ten days. The total protein of each group of cells was distilled with cell lysate. The protein samples were denatured for 5 min at 100° C., glue was removed then, the protein was transferred on the PVDF film after completion, the PBS/t solution containing 5% skimmed milk powder was used for sealing for one hour at room temperature. The PBS/t solution containing 3% bovine serum almbumin was used for diluting the primary anti-body (1:5000), and incubated overnight with the PVDF film containing target protein at 4° C. PBS/t was used for dipping the film twice 5 min each time. PBS was used for diluting the secondary antibody (1:5000) and the cells were incubated for one hour at room temperature, the film was dipped with PSB for three times and 5 min each time. ECL chromogenic reagent was evenly coated on the PVDF film containing target protein ad reacted for five minutes, excessive Chromogenic reagent was removed, and the cells were placed together with the film in a dark box for five minutes to finish film colour development.

embryonic stem cells [4] = experiment: Detection of in vitro vascularization on Matrigel; format: cell-based, mouse; conditions: cells induced for ten days
Description: The embryonic stem cells after induction for ten days were seeded in 24-well cell culture plate paved with Matrigel in advance, the detection culture system was replaced for the cells and placed at 37° C., the cells were cultured at CO2 incubator for 4 hours to 72 hours, and the vascularization conditions were regularly observed. The normal group was set: embryonic stem cells which were cultured for ten days under the culture conditions of differentiation culture medium; solvent control group: embryonic stem cells which were cultured for ten days after DMSO was added under the culture condition of differentiation culture medium. Experimental group: embryonic stem cells which were cultured for ten days after 2,3-dihydro-3-hydroxymethyl-6-amino-[1,4]-benzoxazine was added under the culture condition of differentiation culture medium.
The embryonic stem cells were evenly grown in a 24-well plate according to the density of 2×10^4 cells/well and cultured for 24 hours with DMEM (high glucose) containing leukemia inhibitory factor, L-glutamine, streptomycin, β-mercaptoethanol, non-essential amino acids, nucleotides and 15% FBS, the waste liquid was discarded after the cells adhered on the wall, and the cells were cleaned with 1×PBS. […]

[5] = tested on: vascular endothelial cell marker Flk-1 in embryonic stem cells; experiment: Detection of vascular endothelial cell marker Flk-1 (immunohistochemistry, laser scanning confocal microscopy); format: cell-based, mouse; conditions: induction for 10 days
Description: The embryonic stem cells which were induced with 2,3-dihydro-3-hydroxymethyl-6-amino-[1,4]-benzoxazine with the concentration of 0.5 μM˜40 μM for 5 days and 10 days were evenly grown in 48-well plate and cultured for 24 hours in CO2 incubation chamber at 37° C., after the cells adhered on the wall, immunohistochemistry and laser scanning confocal microscopy were used for observing the expression of endothelial cell markers—Flk-1 The normal group was set: the group was cultured in under the culture condition of differentiation culture medium; solvent control group: the group was cultured after DMSO was added under the culture condition of differentiation culture medium; experimental group: the group was cultured after 2,3-dihydro-3-hydroxymethyl-6-amino-[1,4]-benzoxazine with the concentration of 0.5 μM˜40 μM was added under the culture condition of differentiation culture medium.
as §1, with “48-well” for “24-well”, “and cultured for 24 hours with” for “according to density of 2×10^4 cells/well,”, “FBS,” for “PBS was used for culturing for 24 hours,”, “The” for “A”, “the” for “the normal”, “cultivation.” for “cultivation. The culture medium should be replaced everyday in a timing mode, and the cells were continuously cultured for ten days and then were observed under an inverted phase contrast microscope.”

[6] = tested on: mouse embryonic stem cells; experiment: Induction of mouse embryonic stem cells to differentiate to vascular endothelial cells (overall conclusion); format: cell-based; conditions: for differentiation of mouse embryonic stem cells to vascular endothelial cells: five to ten days, differentiation culture medium
Source text: Cell biology and molecular biology methods were adopted to study and validate the function of the 2,3-dihydro-3-hydroxymethyl-6-amino-[1,4]-benzoxazine of the invention to induce embryonic stem cells to differentiate to vascular endothelial cells with the following experiments.

[7] = 10 μM, listed as 2 3-dihydro-3-hydroxymethyl-6-amino-[1,4]-benzoxazine

Structure (SMILES): Nc1ccc2c(c1)NC(CO)CO2 (centres unmarked) [2,3-dihydro-3-hydroxymethyl-6-amino-[1,4]-benzoxazine]
- phagocytosis of Dil-Ac-LDL (embryonic stem cells [1]; 1 μM˜20 μM): can phagocytose Dil-Ac-LDL
- phagocytosis of Dil-Ac-LDL (embryonic stem cells [1]; 10 μM): particularly evident; also recorded: prominent effect of phagocytosing Dil-Ac-LDL; also recorded: prominently phagocytose Dil-Ac-LDL
- cell morphology change to vascular endothelial cell form ([2]; 10 μM, differentiation culture medium without leukemia inhibitory factor): significant changes; also recorded: prominently prompt the embryonic stem cells to show the vascular endothelial form
- cell morphology change versus normal and solvent control groups ([2]; 1˜20 μM, differentiation culture medium without leukemia inhibitory factor): changed compared with the cell morphology of the control group; also recorded: changed compared with the cell form of the control group
- cell form changes of other treatment groups ([2]; other concentrations of the 0.5 μM˜40 μM range (outside 1˜20 μM)): relatively weak
- expression of vascular endothelial cell marker CD31 ([3]; 1 μM˜20 μM, versus solvent control, listed as 2 3-dihydro-3-hydroxymethyl-6-amino-[1,4]-benzoxazine): increased
- expression of vascular endothelial cell marker CD31 ([3]; 1 μM˜20 μM, versus solvent control, listed as 2,3-dihydro-3-(hydroxymethyl)-6-amino-[1,4]-benzoxazine): increased expression of CD31
- expression of vascular endothelial cell marker CD31 ([3]; 10 μM): more significant
- expression of vascular endothelial cell marker CD31 [3, 7]: stronger CD31 expression
- formation of vessel-like structures on Matrigel (embryonic stem cells [4]; 10 μM): particularly prominent vessel-like structures; also recorded: prominently form blood vessels in vitro; also recorded: prominently form blood vessels on Matrigel
- formation of vessel-like structures on Matrigel (embryonic stem cells [4]; 1˜20 μM): form varying degrees of cavity-like vessel-like structures
- expression of vascular endothelial cell marker Flk-1 ([5]; 1 μM˜20 μM): increased
- expression of vascular endothelial cell marker Flk-1 ([5]; 10 μM): more obvious
- expression of vascular endothelial cell marker Flk-1 [5, 7]: stronger Flk-1 expression
- optimal concentration for inducing differentiation to vascular endothelial cells [6]: 10 µM
- differentiation of mouse embryonic stem cells to vascular endothelial cells ([6]; 1 μM˜20 μM): prominently promote differentiation of mouse embryonic stem cells to vascular endothelial cells
- differentiation of mouse embryonic stem cells to vascular endothelial cells ([6]; 10 μM): particularly prominent
